Source: patent US5047411A, “Benzazole compounds and pharmaceutical composition comprising the same” (Fujisawa Pharmaceutical Co., Ltd., priority 1988, dated 1991)
Counter-ions that a name gives are not always drawn.

The compounds below were run on stress ulcer (assay: Test A: Inhibition of stress ulcer). Conditions: rat, oral, given just before immobilization, ulcer area after 7 hours vs control.
Type: in vivo, male Sprague-Dawley rats
Procedure: Five male Sprague-Dawley rats, aged 7 weeks and weighing about 200 g were used per group for the study on stress ulcer after the fast for 24 hours. Each animal was immobilized in a restrain cage and immersed to a level of the xiphoid in a water bath kept 22° C. Each of the test compound suspended in 0.1% methylcellulose solution was administered orally (5 ml/kg) just before the immobilization. Seven hours later, the animals were sacrificed and their stomachs were removed. The stomach was then fixed with 2% formalin. The area of ulcers was measured for each animal, and percentage of inhibition was calculated by comparing the mean area of ulcers (mm^2) in the test animals with that in the control animals.

Compound | inhibition in vivo at 32 mg/kg
CNc1nc2ccc(Cc3ccccn3)cc2s1 [Test Compound (a), 6-[(2-Pyridyl)methyl]-2-methylaminobenzothiazole] | 87.8%
CCNc1nc2ccc(CCc3ccccn3)cc2s1 [Test Compound (b), 6-[2-(2-Pyridyl)ethyl]-2-ethylaminobenzothiazole] | 83.9%
Nc1nc2ccc(CCc3ccccn3)cc2s1 [Test Compound (c), 6-[2-(2-Pyridyl)ethyl]-2-aminobenzothiazole] | 88.5%
CCNc1nc2ccc(CCc3cn4ccc(C)cc4n3)cc2o1 [Test Compound (d)] | 84.6%
Nc1nc2ccc(Cc3ccccn3)cc2s1 [Test Compound (e), 6-[(2-Pyridyl)methyl]-2-aminobenzothiazole] | 98.2%
CNc1nc2ccc(CCc3nc4cc(C)ccn4c3C)cc2o1 [Test Compound (f), 6-[2-(3,7-Dimethylimidazo[1,2-a]pyridin-2-yl)ethyl]-2-methylaminobenzoxazole] | 85.1%
Cc1ccn2c(C)c(CCc3ccc4nc(N)sc4c3)nc2c1 [Test Compound (g), 6-[2-(3,7-Dimethylimidazo[1,2-a]pyridin-2-yl)ethyl]-2-aminobenzothiazole d ihydrochloride] | 85.4%
COc1ccn2c(C)c(CCc3ccc4nc(N)oc4c3)nc2c1 [Test Compound (h), 6-[2-(7-Methoxy-3-methylimidazo[1,2-a]pyridin-2-yl)ethyl]-2-aminobenzoxazole] | 93.4%
CCNc1nc2ccc(CCc3nc4cc(OC)ccn4c3C)cc2o1 [Test Compound (l), 2-Ethylamino-6-[2-(7-methoxy-3-methylimidazo[1,2-a]pyridin-2-yl)ethyl]benzoxazole dihydrochloride] | 98.6%

The compounds below were run against T1, H2-receptor (Cavia porcellus, UniProt P47747) (assay: Test B: H2-receptor antagonism in isolated guinea-pig atrium). Conditions: 0.5 h, dose 1.0 × 10^-6 g/ml, inhibition of histamine-induced increase in beating rate, 30 minutes after dosing.
T1 construct: from tissue; host or cells: guinea-pig atrium (isolated atrial strip)
T1 sequence (P47747 whole entry): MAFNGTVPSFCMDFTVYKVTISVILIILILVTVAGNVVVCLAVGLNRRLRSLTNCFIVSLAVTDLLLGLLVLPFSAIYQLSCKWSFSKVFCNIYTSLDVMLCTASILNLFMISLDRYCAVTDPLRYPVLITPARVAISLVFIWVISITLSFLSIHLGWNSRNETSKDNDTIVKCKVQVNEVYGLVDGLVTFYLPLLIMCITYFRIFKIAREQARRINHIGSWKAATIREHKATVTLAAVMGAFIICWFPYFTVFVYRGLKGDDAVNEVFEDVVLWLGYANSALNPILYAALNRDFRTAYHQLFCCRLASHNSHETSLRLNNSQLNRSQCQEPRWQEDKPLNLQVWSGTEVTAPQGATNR
Type: cell-based
Procedure: The atrial strip isolated from guinea-pig was suspended under an initial tension 0.3 to 0.6 g in an organ bath containing Tyrode solution at 30° C., aerated 95%O2 -5%CO2 gas. The beating rate and amplitude of contraction of the atrium were recorded by means of a transducer and a polygraph. Histamine ([…]) was added to the bathing fluid and the increase in beating rate after dosing was measured. Addition of test compound was made 30 minutes after washing out histamine. Inhibitory effect of test compound was calculated by comparing histamine-induced increases in beating rate before and 30 minutes after dosing with test compound.

Compound | inhibition at 1 µg/mL
CNc1nc2ccc(CCc3nc4cc(OC)ccn4c3C)cc2o1 [Test Compound (k), 6-[2-(7-Methoxy-3-methylimidazo[1,2-a]pyridin-2-yl)ethyl]-2-methylaminobenzoxazole dihydrochloride] | 92.5%

Same assay, conditions: 0.5 h, dose 3.2 × 10^-6 g/ml, inhibition of histamine-induced increase in beating rate, 30 minutes after dosing

inhibition at 3.2 µg/mL | Compound
100% | COc1ccn2c(C)c(CCc3ccc4nc(N)oc4c3)nc2c1 [Test Compound (h), 6-[2-(7-Methoxy-3-methylimidazo[1,2-a]pyridin-2-yl)ethyl]-2-aminobenzoxazole]
93.1% | Cc1ccn2c(C)c(CCc3ccc4nc(N)oc4c3)nc2c1 [Test Compound (i), 6-[2-(3,7-Dimethylimidazo[1,2-a]pyridin-2-yl)ethyl]-2-aminobenzoxazole]
98% | CCNc1nc2ccc(CCc3nc4cc(C)ccn4c3C)cc2o1 [Test Compound (j), 6-[2-(3,7-Dimethylimidazo[1,2-a]pyridin-2-yl)ethyl]-2-ethylaminobenzoxazole]
